Results published in patent US9809640B2, “ApoE peptide dimers and uses thereof” (priority 2010, dated 2017).
Positions of bridges follow the written chain, without caps; N, C: chain ends. Chains are numbered I, II in the order given.

Experiments:
PP2A = assay: Phosphatase activity of PP2A immunoprecipitated from MDA-MB-231 cells; assay type: cell-based; details: concentrations ≧100 nM, EGF-stimulated MB231
Text: (§1) FIG. 12A: Total PP2A activity immunoprecipitated from MDA-MB-231 cells treated with EGF and increasing concentrations of COG445. FIG. 12B: Western blot and densitometry analysis of total c-myc protein levels in U87 cells treated with the indicated concentrations of COG445 in the presence or absence of okadaic acid. FIG. 12C: Immunoprecipitation of the catalytic subunit of PP2A from MDA-MB-231 cells exposed to EGF and two different concentrations of COG445. The blot is probed for I2PP2A (SET) and PP2A catalytic subunit.
(§2) To further characterize the effect of COG445 on PP2A activity, MB231 cells were treated as above and the phosphatase activity of immunoprecipitated PP2A was measured. EGF stimulation caused a significant decrease in total PP2A activity compared to untreated serum starved cells (FIG. 12A). […] To further explore the extent of PP2A activation in response to COG445, total c-myc protein levels were determined by western blot analysis. C-myc is a substrate for PP2A and upon dephosphorylation is metabolized by ubiquitination and proteasomal degradation. In both U87 (FIG. 12B) and MB231 (data not shown) cell lines, c-myc levels decreased after a two-hour exposure to COG445 in a dose-dependent manner, reaching statistical significance at 1000 nM.

c-myc = assay: Total c-myc protein levels, Western blot; assay type: cell-based
Text: as §1, §2

[1] = Mouse toxicity, maximum tolerated dose by intravenous injection; details: in vivo, maximum dose by intravenous injection without deaths after 24 hrs
GSK-3β = GSK-3β phosphorylation in MB231 cells, Western blot; assay type: cell-based; details: markedly reduced at ≧100 nM
Text: (§3) FIG. 13A: Western blot and densitometry analysis of phosphorylated m-TOR levels in MDA-MB-231 cells treated with EGF and the indicated concentrations of COG445 in the presence or absence of okadaic acid. FIG. 13B: Western blot analysis of phosphorylated GSK-3β levels in MDA-MB-231 cells treated with EGF and the indicated concentrations of COG445 in the presence or absence of okadaic acid.
(§4) Akt exerts its proliferative signal by phosphorylating protein substrates such as mTOR and GSK-3β. To examine the effects of COG445 on downstream Akt signaling in MB231 cells, mTOR activation and GSK-3β inhibition was measured by western blot analysis. […] The reduction in mTOR and GSK-3β phosphorylation was eliminated in the presence of okadaic acid, further evidence that PP2A mediates the effects of COG445 on Akt signaling.

MDA-MB-231 cells = assay: MB231 cellular proliferation by cell count; assay type: cell-based
Procedure: (§5) FIG. 14A: Dose response curve of COG445 on proliferation of U87 (open circles) and MDA-MB-231 (filled circles) cells as measured by MTT reduction. FIG. 14B: Dose response curve of COG445 on proliferation of MDA-MB-231 cells as measured by cell count.
(§6) Because COG445 inhibited Akt activation and downstream signaling, we examined the effects of COG445 on cellular proliferation. Adherent MB231 and U87 cells were grown for ˜24 hours in the presence of COG445 and cellular proliferation was measured by MTT reduction. […] Furthermore, COG445 inhibited MB231 cellular proliferation as determined by cell count (FIG. 14B). Approximately 6×10^4 cells were plated in growth media (RPMI+10% FBS) for 24-hours with increasing concentrations of COG445. […] However at concentrations ≧1 μM COG445, there appears to be a loss of cells. This is partially explained by decreased proliferation, although it is possible that the rate of cellular degradation was increased in the presence of COG445.

[2] = test system: MDA-MB-231 breast cancer cells; assay type: cell-based; details: MB231, ~24 hours
Procedure: as §5
Next, we examined the potency of an ApoE peptide dimer versus the monomeric form on proliferation of the MDA-MB-231 breast cancer cell line. MDA-MB-231 cells were treated with various concentrations of either COG435 (monomer; SEQ ID NO: 90) or COG493 (a BMOE-linked dimer of COG 435) peptides for 48 hours. Following peptide treatment, cells were quantified using a MTT assay.
as §6

[3] = biological target: recombinant human PP2A catalytic subunit (Homo sapiens, UniProt P67775); assay: Recombinant human PP2A catalytic subunit activity; assay type: biochemical; details: up to 10 μM
Chain of recombinant human PP2A catalytic subunit (P67775 whole entry): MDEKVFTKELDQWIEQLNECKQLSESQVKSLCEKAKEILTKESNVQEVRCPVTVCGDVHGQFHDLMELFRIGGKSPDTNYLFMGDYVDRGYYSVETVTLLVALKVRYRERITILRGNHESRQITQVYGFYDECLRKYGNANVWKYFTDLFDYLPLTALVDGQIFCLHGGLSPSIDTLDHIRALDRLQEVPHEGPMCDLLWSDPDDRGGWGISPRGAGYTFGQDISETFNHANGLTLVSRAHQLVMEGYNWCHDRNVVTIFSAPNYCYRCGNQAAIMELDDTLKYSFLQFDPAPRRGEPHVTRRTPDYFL
Procedure: To examine the mechanism of COG445 on PP2A activity, recombinant human PP2A catalytic subunit was incubated with COG445 and activity was measured. […] To further explore the changes of PP2A protein complexes, co-immunoprecipitation experiments were performed on MB231 cells.

mTOR = mTOR phosphorylation in MB231 cells, Western blot; assay type: cell-based; details: markedly reduced at ≧100 nM
Text: as §3, §4

With “I: Ac-RQIKIWFQNRRMKWKKCLRVRLASHLRKLRKRLL-NH2 / II: Ac-RQIKIWFQNRRMKWKKCLRVRLASHLRKLRKRLL-NH2 (disulfide I:17-II:17) [COG445, COG112-C-C-COG112]” the PP2A activity (PP2A) was “significant (P<0.01) increase”, the “c-myc levels in the presence of OA” value (c-myc) was “unaltered” and the c-myc levels (c-myc; two-hour exposure, U87 and MB231, significant at 1000 nM) was “decreased”. The MTD at 24 h [1] was 28 mg/kg, the “GSK-3β phosphorylation upon EGF stimulation” value (GSK-3β) was “dose-dependent decrease” and the “cellular proliferation by cell count” value (MDA-MB-231 cells; 0.1 μM) was “slight decrease”. The “cellular proliferation by cell count” value (MDA-MB-231 cells; 24 hours) was “inhibited”, the cell count (MDA-MB-231 cells; ≧1 μM) was “loss of cells” and the “proliferation by MTT reduction” value [2] was “dose-dependent decrease”. The “rate of phosphatase activity” value [3] was “did not have any effect” and the “mTOR phosphorylation upon EGF stimulation” value (mTOR) was “dose-dependent decrease”.
